Earlier results as cited in PMC5563391 (Investigational new drugs, 2015).

System: patients with CML or Ph+ ALL
Conditions: phase 1 study; cited from earlier work

CO[C@@H](C(=O)N1Cc2n[nH]c(NC(=O)c3ccc(N4CCN(C)CC4)cc3)c2C1)c1ccccc1 [danusertib]
patients with responses: 6 of 23
